From US8853258B2, “C-linked hydroxamic acid derivatives useful as antibacterial agents” (Pfizer Inc., priority 2009, dated 2014)
Converted amounts (≈) assume the structure as drawn.

How the values were obtained:
Assay type in all cases: cell-based
[1] = tested on: Escherichia coli EC-1: VOGEL, mouse virulent; assay: MIC determination (CLSI), EC-1; conditions: for MIC: Escherichia coli, read-out: EC-1 MIC; for EC-1 MIC: Escherichia coli EC-1 VOGEL, mouse virulent
Procedure: (§1) The in vitro antibacterial activity of compounds described in the Examples was evaluated by minimum inhibitory concentration (MIC) testing according to Clinical and Laboratory Standards Institute (CLSI, formerly NCCLS) guidelines. See: Clinical and Laboratory Standards Institute. Methods for Dilution Antimicrobial Susceptibility Tests for Bacteria that Grow Aerobically; Approved Standard-Seventh Edition. CLSI document M7-A7 [ISBN 1-56238-587-9]. Clinical and Laboratory Standards Institute, 940 West Valley Road, Suite 1400, Wayne, Pa. 19087-1898 USA, 2006; also Clinical and Laboratory Standards Institute. Performance Standards for Antimicrobial Susceptibility Testing; Eighteenth Informational Supplement. CLSI document M100-S18 [ISBN1-56238-653-0]. Clinical and Laboratory Standards Institute.
(§2) The following bacterial strains were used in these MIC determinations:
3) Escherichia coli EC-1: VOGEL, mouse virulent labeled as EC-1 in Tables 1, 2 and 3;

[2] = tested on: Pseudomonas aeruginosa UI-18: Wild-type (PA-7); assay: MIC determination (CLSI), PA-7; conditions: for MIC: Pseudomonas aeruginosa, Table 3, read-out: PA-7 MIC; for PA-7 MIC: Pseudomonas aeruginosa UI-18 wild-type PA-7
Procedure: as §1, §2
1) Pseudomonas aeruginosa UI-18: Wild-type, labeled as PA-7 in Tables 1, 2 and 3;

[3] = tested on: Acinetobacter baumanii/haemolyticus: Multidrug-resistant clinical isolate (AB-3167); assay: MIC determination (CLSI), AB-3167; conditions: for MIC: Acinetobacter baumannii, Table 3, read-out: AB-3167 MIC; for AB-3167 MIC: Acinetobacter baumanii/haemolyticus multidrug-resistant clinical isolate AB-3167
Procedure: as §1, §2
2) Acinetobacter baumanii/haemolyticus: Multidrug-resistant clinical isolate labeled as AB-3167 in Tables 1, 2 and 3;

[4] = tested on: Klebsiella pneumoniae: Ciprofloxacin-resistant isolate, ESBL, clinical isolate (KP-3700); assay: MIC determination (CLSI), KP-3700
Procedure: as §1, §2
4) Klebsiella pneumoniae: Ciprofloxacin-resistant isolate, expresses extended-spectrum beta-lactamases (ESBL), clinical isolate, labeled as KP-3700 in Tables 1, 2, and 3.

Row | SMILES | MIC [1] [µg/mL] | MIC [2] [µg/mL] | MIC [3] [µg/mL] | KP-3700 MIC [4] | EC-1 MIC [1] [µg/mL] | PA-7 MIC [2] [µg/mL] | AB-3167 MIC [3]
1 | Cc1ccc(COc2ccc(CCC(C)(C(=O)NO)S(C)(=O)=O)cc2)cc1 (stereo not drawn) [Example 263, N-hydroxy-2-methyl-4-{4-[(4-methylbenzyl)oxy]phenyl}-2-(methylsulfonyl)butanamide] | 2 (≈ 5.11 µM) | 4 (≈ 10.2 µM) | 16 (≈ 40.9 µM) | 8 µg/mL |  |  | 
2 | CSc1ccc(-c2ccc(CCC(C)(C(=O)NO)S(C)(=O)=O)cn2)cc1 (stereo not drawn) [Example 121] |  |  |  | 4 µg/mL | 1 | 4 | ≧64 mg/L
3 | CC(CCc1ccc(-c2ccc(F)c(F)c2)cc1)(C(=O)NO)S(C)(=O)=O (racemic) [Example 75] |  |  |  | 4 µg/mL | 1 | 0.5 | 8 µg/mL
4 | Cc1cccc(-c2ccc(CCC(C)(C(=O)NO)S(C)(=O)=O)cc2)c1 (racemic) [Example 87] |  |  |  | 4 µg/mL | 2 | 1 | 8 µg/mL
5 | COc1cccc(-c2ccc(CCC(C)(C(=O)NO)S(C)(=O)=O)cc2)c1F (racemic) [Example 89] |  |  |  | 1 µg/mL | 0.5 | 0.5 | 16 µg/mL
6 | CC(CCc1ccc(OCc2nc(-c3cc(F)cc(F)c3)no2)cc1)(C(=O)NO)S(C)(=O)=O (stereo not drawn) [Example 255, 4-(4-{[3-(3,5-difluorophenyl)-1,2,4-oxadiazol-5-yl]methoxy}phenyl)-N-hydroxy-2-methyl-2-(methylsulfonyl)butanamide] | 16 (≈ 33.2 µM) | ≥ 64 | 16 (≈ 33.2 µM) | ≧64 mg/L |  |  | 
7 | CC(C)c1cccc(-c2ccc(CCC(C)(C(=O)NO)S(C)(=O)=O)cc2)c1 (stereo not drawn) [Example 43] |  |  |  | 16 µg/mL | 4 | 8 | 4 µg/mL
8 | COc1cc(-c2ccc(CCC(C)(C(=O)NO)S(C)(=O)=O)cc2)ccc1O (stereo not drawn) [Example 139] |  |  |  | ≧64 mg/L | 16 | 16 | ≧64 mg/L
9 | Cc1cc(OCCO)ccc1-c1ccc(CCC(C)(C(=O)NO)S(C)(=O)=O)cc1 (stereo not drawn) [Example 151] |  |  |  | 32 µg/mL | 8 | 4 | ≧64 mg/L
10 | CC(CCc1ccc(-c2ccc(CCO)cc2F)cc1)(C(=O)NO)S(C)(=O)=O (stereo not drawn) [Example 155] |  |  |  | 8 µg/mL | 2 | 1 | ≧64 mg/L
11 | CC(CCc1ccc(OCCCC2CCCCC2)cc1)(C(=O)NO)S(C)(=O)=O (stereo not drawn) [Example 315, 4-[4-(3-cyclohexylpropoxy)phenyl]-N-hydroxy-2-methyl-2-(methylsulfonyl)butanamide] | 4 (≈ 9.72 µM) | 32 (≈ 77.8 µM) | 2 (≈ 4.86 µM) | 16 µg/mL |  |  | 
12 | CC(C)Oc1ccc(CCC(C)(C(=O)NO)S(C)(=O)=O)cc1 (stereo not drawn) [Example 234, N-hydroxy-4-(4-isopropoxyphenyl)-2-methyl-2-(methylsulfonyl)butanamide] | ≥ 64 | 8 (≈ 24.3 µM) | ≥ 64 | ≧64 mg/L |  |  | 
13 | CC(CCc1ccc(-c2ccccc2O)nc1)(C(=O)NO)S(C)(=O)=O (stereo not drawn) [Example 143] |  |  |  | 32 µg/mL | 4 | 4 | ≧64 mg/L
14 | CCCCOc1ccc(CCC(C)(C(=O)NO)S(C)(=O)=O)cc1 (stereo not drawn) [Example 236, 4-(4-butoxyphenyl)-N-hydroxy-2-methyl-2-(methylsulfonyl)butanamide] | 16 (≈ 46.6 µM) | 8 (≈ 23.3 µM) | 32 (≈ 93.2 µM) | ≧64 mg/L |  |  | 
15 | Cn1cc(-c2ccc(CCC(C)(C(=O)NO)S(C)(=O)=O)cc2)cn1 (stereo not drawn) [Example 101] |  |  |  | 32 µg/mL | 32 | 8 | ≧64 mg/L
